Assay results as given in ChEMBL document CHEMBL3132769, “Fragment growing to retain or alter the selectivity of anchored kinase hinge-binding fragments” (Medchemcomm, 2014).

Columns and labels:
[1] = biological target: T1, Serine/threonine-protein kinase Chk1 (Homo sapiens) (UniProt O14757); assay: Inhibition of human full length CHK1 expressed in baculovirus assessed as substrate phosphorylation using fluorescence-labelled peptides as substrate at 0.06 uM after 90 mins by microfluidic peptide phosphorylation assay
T1 sequence (whole entry): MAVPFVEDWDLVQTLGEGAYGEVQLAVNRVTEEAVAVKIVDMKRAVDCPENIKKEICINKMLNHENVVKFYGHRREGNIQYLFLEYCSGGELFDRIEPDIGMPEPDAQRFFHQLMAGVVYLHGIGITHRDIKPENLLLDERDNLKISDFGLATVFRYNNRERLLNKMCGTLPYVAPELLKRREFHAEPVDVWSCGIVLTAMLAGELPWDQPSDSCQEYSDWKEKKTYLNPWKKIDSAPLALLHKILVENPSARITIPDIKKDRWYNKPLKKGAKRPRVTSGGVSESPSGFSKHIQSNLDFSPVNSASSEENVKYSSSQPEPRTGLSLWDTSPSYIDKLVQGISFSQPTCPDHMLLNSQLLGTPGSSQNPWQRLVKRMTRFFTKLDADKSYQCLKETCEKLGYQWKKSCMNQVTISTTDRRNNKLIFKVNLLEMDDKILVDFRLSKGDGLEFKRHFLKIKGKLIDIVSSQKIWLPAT

[2] = biological target: Protein kinase C eta type (Homo sapiens) (UniProt P24723); assay: Inhibition of human truncated PKC eta expressed in baculovirus assessed as substrate phosphorylation using fluorescence-labelled peptides as substrate at 0.06 uM after 90 mins by microfluidic peptide phosphorylation assay
[3] = biological target: T2, Testis-specific serine/threonine-protein kinase 2 (Homo sapiens) (UniProt Q96PF2); assay: Inhibition of human full length TSSK2 expressed in baculovirus assessed as substrate phosphorylation using fluorescence-labelled peptides as substrate at 0.06 uM after 90 mins by microfluidic peptide phosphorylation assay
T2 sequence (whole entry): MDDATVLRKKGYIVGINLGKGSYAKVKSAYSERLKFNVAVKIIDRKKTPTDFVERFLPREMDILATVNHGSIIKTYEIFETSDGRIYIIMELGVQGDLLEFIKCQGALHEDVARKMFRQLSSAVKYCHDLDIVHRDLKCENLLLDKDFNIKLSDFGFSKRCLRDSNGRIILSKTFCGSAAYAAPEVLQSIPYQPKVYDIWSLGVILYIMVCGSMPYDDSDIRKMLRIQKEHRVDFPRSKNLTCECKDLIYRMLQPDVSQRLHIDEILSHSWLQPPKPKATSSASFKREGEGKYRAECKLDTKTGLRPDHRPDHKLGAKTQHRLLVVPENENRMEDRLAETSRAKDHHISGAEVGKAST

[4] = biological target: Protein kinase C gamma type (Homo sapiens) (UniProt P05129); assay: Inhibition of human truncated PKC gamma expressed in baculovirus assessed as substrate phosphorylation using fluorescence-labelled peptides as substrate at 0.06 uM after 90 mins by microfluidic peptide phosphorylation assay
[5] = biological target: Serine/threonine-protein kinase Chk2 (Homo sapiens) (UniProt O96017); assay: Inhibition of human full length CHK2 expressed in baculovirus assessed as substrate phosphorylation using fluorescence-labelled peptides as substrate at 0.2 uM after 90 mins by microfluidic peptide phosphorylation assay
[6] = biological target: Fibroblast growth factor receptor 4 (Homo sapiens) (UniProt P22455); assay: Inhibition of human FGFR4 catalytic domain expressed in baculovirus assessed as substrate phosphorylation using fluorescence-labelled peptides as substrate at 0.2 uM after 90 mins by microfluidic peptide phosphorylation assay
[7] = biological target: Epidermal growth factor receptor (Homo sapiens) (UniProt P00533); assay: Inhibition of human EGFR catalytic domain expressed in baculovirus assessed as substrate phosphorylation using fluorescence-labelled peptides as substrate at 420 uM after 90 mins by microfluidic peptide phosphorylation assay
[8] = biological target: Mitogen-activated protein kinase 1 (Homo sapiens) (UniProt P28482); assay: Inhibition of human full length ERK2 expressed in Escherichia coli cell assessed as substrate phosphorylation using fluorescence-labelled peptides as substrate at 420 uM after 90 mins by microfluidic peptide phosphorylation assay
[9] = biological target: Tyrosine-protein kinase Fer (Homo sapiens) (UniProt P16591); assay: Inhibition of human FER catalytic domain expressed in baculovirus assessed as substrate phosphorylation using fluorescence-labelled peptides as substrate at 420 uM after 90 mins by microfluidic peptide phosphorylation assay
[10] = biological target: Aurora kinase B (Homo sapiens) (UniProt Q96GD4); assay: Inhibition of human full length AurB expressed in baculovirus assessed as substrate phosphorylation using fluorescence-labelled peptides as substrate at 420 uM after 90 mins by microfluidic peptide phosphorylation assay
[11] = biological target: MAP kinase-activated protein kinase 3 (Homo sapiens) (UniProt Q16644); assay: Inhibition of human full length MAPKAPK3 expressed in Escherichia coli cell assessed as substrate phosphorylation using fluorescence-labelled peptides as substrate at 95 uM after 90 mins by microfluidic peptide phosphorylation assay
[12] = biological target: Mitogen-activated protein kinase kinase kinase kinase 4 (Homo sapiens) (UniProt O95819); assay: Inhibition of human HGK catalytic domain expressed in baculovirus assessed as substrate phosphorylation using fluorescence-labelled peptides as substrate at 95 uM after 90 mins by microfluidic peptide phosphorylation assay
[13] = biological target: Tyrosine-protein kinase Lck (Homo sapiens) (UniProt P06239); assay: Inhibition of human full length LCK expressed in baculovirus assessed as substrate phosphorylation using fluorescence-labelled peptides as substrate at 9 uM after 90 mins by microfluidic peptide phosphorylation assay
[14] = biological target: Vascular endothelial growth factor receptor 2 (Homo sapiens) (UniProt P35968); assay: Inhibition of human KDR cytoplasmic domain expressed in baculovirus assessed as substrate phosphorylation using fluorescence-labelled peptides as substrate at 1000 uM after 90 mins by microfluidic peptide phosphorylation assay
[15] = tested on: Tyrosine-protein kinase ABL1 (Homo sapiens), P00519 [T315I]; assay: Inhibition of human truncated ABL T315I mutant expressed in baculovirus assessed as substrate phosphorylation using fluorescence-labelled peptides as substrate at 8 uM after 90 mins by microfluidic peptide phosphorylation assay
[16] = biological target: Ribosomal protein S6 kinase alpha-2 (Homo sapiens) (UniProt Q15349); assay: Inhibition of human full length RSK3 expressed in baculovirus assessed as substrate phosphorylation using fluorescence-labelled peptides as substrate at 8 uM after 90 mins by microfluidic peptide phosphorylation assay
[17] = biological target: Aurora kinase B (Homo sapiens) (UniProt Q96GD4); settings: 0.1 uM
Description: Inhibition of human full length AurB expressed in baculovirus assessed as substrate phosphorylation using fluorescence-labelled peptides as substrate at 0.1 uM after 90 mins by microfluidic peptide phosphorylation assay

Aurora kinase B (Homo sapiens), sequence (Q96GD4 whole entry): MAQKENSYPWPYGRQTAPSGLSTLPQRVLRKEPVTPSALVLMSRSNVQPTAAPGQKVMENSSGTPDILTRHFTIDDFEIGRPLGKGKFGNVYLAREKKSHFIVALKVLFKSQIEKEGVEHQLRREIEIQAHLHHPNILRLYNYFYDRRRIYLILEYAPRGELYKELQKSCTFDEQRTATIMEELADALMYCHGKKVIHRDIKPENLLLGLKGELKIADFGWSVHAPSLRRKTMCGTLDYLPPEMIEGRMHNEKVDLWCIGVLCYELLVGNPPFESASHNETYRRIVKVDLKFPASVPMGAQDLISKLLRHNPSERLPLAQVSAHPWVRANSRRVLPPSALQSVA
Serine/threonine-protein kinase Chk2 (Homo sapiens), sequence (O96017 whole entry, the tested form may be a part): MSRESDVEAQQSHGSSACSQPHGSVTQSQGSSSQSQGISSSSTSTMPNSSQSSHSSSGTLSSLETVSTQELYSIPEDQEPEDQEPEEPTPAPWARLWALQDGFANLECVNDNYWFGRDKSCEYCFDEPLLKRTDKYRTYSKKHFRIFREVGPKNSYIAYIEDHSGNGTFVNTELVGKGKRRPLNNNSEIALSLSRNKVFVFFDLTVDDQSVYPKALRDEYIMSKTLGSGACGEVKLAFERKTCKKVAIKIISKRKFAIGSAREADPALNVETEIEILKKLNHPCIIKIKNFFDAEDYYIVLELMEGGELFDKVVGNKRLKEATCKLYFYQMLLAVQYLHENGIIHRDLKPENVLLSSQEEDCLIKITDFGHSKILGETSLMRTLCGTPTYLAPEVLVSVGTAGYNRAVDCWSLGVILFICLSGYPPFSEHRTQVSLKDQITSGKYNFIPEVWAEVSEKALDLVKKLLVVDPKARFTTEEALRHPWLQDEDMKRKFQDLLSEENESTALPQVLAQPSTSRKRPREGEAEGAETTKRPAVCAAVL
Fibroblast growth factor receptor 4 (Homo sapiens), sequence (P22455 22-802 limits assumed): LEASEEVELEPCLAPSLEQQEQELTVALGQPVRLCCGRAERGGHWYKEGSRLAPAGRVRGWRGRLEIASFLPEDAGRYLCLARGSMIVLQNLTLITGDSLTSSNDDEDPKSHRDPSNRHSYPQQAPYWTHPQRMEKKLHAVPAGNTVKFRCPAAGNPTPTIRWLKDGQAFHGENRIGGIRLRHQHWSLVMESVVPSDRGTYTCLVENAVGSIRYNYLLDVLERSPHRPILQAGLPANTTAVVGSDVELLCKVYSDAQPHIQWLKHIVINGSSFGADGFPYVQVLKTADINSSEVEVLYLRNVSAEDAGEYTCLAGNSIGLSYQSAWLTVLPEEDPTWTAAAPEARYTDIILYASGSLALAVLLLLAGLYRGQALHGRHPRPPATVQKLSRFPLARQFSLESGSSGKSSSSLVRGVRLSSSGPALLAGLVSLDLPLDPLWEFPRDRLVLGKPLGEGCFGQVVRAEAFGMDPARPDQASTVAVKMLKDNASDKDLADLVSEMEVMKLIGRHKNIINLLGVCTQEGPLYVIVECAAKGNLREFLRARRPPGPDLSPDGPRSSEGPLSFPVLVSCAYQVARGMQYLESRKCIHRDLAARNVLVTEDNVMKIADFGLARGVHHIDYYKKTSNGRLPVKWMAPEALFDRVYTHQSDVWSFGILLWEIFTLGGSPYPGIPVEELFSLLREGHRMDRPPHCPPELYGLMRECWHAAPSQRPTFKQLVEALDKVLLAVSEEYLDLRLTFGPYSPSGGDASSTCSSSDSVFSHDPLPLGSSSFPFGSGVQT
Vascular endothelial growth factor receptor 2 (Homo sapiens), sequence (P35968 whole entry, the tested form may be a part): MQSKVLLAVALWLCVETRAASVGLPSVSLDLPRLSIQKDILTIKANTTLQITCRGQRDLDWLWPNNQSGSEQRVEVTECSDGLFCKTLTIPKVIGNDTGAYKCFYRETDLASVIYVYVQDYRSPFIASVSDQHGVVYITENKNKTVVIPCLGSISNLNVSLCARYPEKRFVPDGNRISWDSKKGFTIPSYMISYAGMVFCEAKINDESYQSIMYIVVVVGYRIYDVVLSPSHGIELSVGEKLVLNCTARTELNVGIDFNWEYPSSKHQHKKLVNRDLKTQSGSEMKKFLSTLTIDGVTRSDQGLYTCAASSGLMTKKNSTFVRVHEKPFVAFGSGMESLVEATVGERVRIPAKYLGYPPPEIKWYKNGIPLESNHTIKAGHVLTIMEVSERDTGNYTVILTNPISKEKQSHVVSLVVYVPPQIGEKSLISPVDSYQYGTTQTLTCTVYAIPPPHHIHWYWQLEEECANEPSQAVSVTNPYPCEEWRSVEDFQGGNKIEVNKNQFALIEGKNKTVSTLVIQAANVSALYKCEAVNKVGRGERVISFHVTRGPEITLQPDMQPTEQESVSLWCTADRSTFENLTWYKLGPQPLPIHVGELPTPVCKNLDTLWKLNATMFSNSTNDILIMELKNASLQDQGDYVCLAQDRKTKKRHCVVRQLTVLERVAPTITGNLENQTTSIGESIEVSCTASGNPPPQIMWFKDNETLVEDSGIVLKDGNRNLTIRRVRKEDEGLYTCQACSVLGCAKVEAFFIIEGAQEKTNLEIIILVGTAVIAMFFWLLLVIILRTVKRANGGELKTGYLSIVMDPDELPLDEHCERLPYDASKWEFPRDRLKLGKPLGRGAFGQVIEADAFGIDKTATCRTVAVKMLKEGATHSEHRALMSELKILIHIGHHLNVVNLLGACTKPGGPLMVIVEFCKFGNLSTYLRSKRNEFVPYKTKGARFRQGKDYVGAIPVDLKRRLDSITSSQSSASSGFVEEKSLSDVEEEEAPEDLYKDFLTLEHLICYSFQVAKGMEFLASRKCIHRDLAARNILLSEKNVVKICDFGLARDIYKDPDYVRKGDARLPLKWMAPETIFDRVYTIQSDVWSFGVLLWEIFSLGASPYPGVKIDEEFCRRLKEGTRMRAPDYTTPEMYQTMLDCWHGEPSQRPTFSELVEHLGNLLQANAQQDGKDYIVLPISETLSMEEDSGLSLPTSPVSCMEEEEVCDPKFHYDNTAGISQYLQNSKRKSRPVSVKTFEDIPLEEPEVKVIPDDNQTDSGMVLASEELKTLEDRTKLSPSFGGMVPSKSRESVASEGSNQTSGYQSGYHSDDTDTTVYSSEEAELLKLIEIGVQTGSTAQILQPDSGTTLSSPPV
Epidermal growth factor receptor (Homo sapiens), sequence (P00533 whole entry, the tested form may be a part): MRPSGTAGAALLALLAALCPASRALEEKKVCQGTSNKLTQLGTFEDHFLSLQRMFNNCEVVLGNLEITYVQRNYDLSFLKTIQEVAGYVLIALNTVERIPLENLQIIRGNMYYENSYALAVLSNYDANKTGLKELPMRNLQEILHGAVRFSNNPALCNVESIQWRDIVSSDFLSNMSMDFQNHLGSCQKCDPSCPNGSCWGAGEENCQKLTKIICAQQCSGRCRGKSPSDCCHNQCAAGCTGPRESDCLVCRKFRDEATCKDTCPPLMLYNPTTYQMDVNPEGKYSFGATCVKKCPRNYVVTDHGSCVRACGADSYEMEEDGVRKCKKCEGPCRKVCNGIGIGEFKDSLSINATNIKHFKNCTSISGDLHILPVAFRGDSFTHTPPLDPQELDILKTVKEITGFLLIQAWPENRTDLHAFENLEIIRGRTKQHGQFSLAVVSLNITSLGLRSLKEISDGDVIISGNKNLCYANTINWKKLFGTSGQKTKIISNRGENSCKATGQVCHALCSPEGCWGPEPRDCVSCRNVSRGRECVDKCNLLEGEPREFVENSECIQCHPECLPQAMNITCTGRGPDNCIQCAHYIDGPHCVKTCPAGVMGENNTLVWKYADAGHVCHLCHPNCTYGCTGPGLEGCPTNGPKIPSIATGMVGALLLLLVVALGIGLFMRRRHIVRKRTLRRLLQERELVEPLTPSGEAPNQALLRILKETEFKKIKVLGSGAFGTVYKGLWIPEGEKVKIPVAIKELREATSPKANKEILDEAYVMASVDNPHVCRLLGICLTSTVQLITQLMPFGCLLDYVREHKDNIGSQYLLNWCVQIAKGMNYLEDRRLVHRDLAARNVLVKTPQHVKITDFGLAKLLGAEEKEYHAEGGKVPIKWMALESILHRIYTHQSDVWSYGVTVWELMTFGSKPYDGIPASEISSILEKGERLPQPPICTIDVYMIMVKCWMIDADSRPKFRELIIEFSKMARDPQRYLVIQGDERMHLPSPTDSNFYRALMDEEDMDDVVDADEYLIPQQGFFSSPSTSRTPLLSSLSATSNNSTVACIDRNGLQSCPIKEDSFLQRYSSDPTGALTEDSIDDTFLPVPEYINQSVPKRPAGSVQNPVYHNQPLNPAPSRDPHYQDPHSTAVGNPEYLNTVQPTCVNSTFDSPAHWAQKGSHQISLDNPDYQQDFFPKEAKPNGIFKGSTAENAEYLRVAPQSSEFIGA

For `NC1(Cc2ccc(Cl)cc2)CCN(c2ncnc3[nH]ccc23)CC1`, which inhibition [1] is on record?
The inhibition was 0%.

What about the inhibition [2] of the same molecule?
Its inhibition is 51%.

And the inhibition [3]?
Its inhibition is 3%.

And the inhibition [4]?
Its inhibition is 3.5%.

What does the source list for `Clc1ccc(C2(c3ccc(-c4ncnc5[nH]cnc45)cc3)CCNCC2)cc1`?
inhibition [5]: 59%; inhibition [6]: 1.5%

Which results are given for `c1nc(N2CCOCC2)c2nc[nH]c2n1`?
inhibition [7]: 29%; inhibition [8]: 68%; inhibition [9]: 70.5%; inhibition [10]: 96%

Which results are given for `NCCc1ccc(-c2ncnc3[nH]cnc23)cc1`?
inhibition [11]: 24%; inhibition [12]: 39.5%

How did the inhibition [13] turn out when `NCC1CN(c2ncnc3[nH]c4cnccc4c23)CCO1` (configuration not stated) was run?
The inhibition was 39%.

With `c1cnc2[nH]ccc2c1` as the molecule, how does the inhibition [14] read?
The inhibition was 89.5%.

Which inhibition [15] does the source give for `NCC1CCN(c2ncnc3[nH]ccc23)CC1` here?
Its inhibition is 53%.

What about the inhibition [16] of the same molecule?
Its inhibition is 28%.

`C[C@H](CN(C)C)Oc1nc(Nc2cc3cccc(Cl)c3cn2)cnc1C#N` was tested. Which inhibition [17] did it give?
The inhibition was 0%.
